Experimental data reported in PubChem BioAssay AID1963433 (Molecular Pharmacology Branch, DTP, NCI, 2024).

Test system: 772245-204-R-J1-PDC complex spheroid growth
Test: Anticancer human tumor 772245-204-R-J1-PDC patient-derived rhabdomyosarcoma cell line growth inhibition [Asc]
Details: for IC50: curve of first compound; for viability, T/C: stronger effect = lower value
Procedure, shortened: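 Complex solid-tumor spheroids incorporating human endothelial and mesenchymal stem cells received single agents or combinations over half-log dilution ranges anchored to clinical Cmax.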

[1] = second compound 0.1 µM, first compound 0.00949 µM
[2] = second compound 0.1 µM, first compound 0.03 µM
[3] = second compound 0.1 µM, first compound 0.0949 µM
[4] = second compound 0.1 µM, first compound 0.3 µM
[5] = second compound 0.1 µM, first compound 0.949 µM
[6] = second compound 0.1 µM, first compound 3 µM
[7] = second compound 0.316 µM, first compound 0.00949 µM
[8] = second compound 0.316 µM, first compound 0.03 µM
[9] = second compound 0.316 µM, first compound 0.0949 µM
[10] = second compound 0.316 µM, first compound 0.3 µM
[11] = second compound 0.316 µM, first compound 0.949 µM
[12] = second compound 0.316 µM, first compound 3 µM
[13] = second compound 1 µM, first compound 0.00949 µM
[14] = second compound 1 µM, first compound 0.03 µM
[15] = second compound 1 µM, first compound 0.0949 µM
[16] = second compound 1 µM, first compound 0.3 µM
[17] = second compound 1 µM, first compound 0.949 µM
[18] = second compound 1 µM, first compound 3 µM
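Further: compound exposure lasted seven days.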
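Wherever viability, T/C is given: 100% = DMSO vehicle control viability.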

Cc1nc(N2CCC3(CC2)COC(C)C3N)c(CO)nc1Sc1ccnc(N)c1Cl (configuration not stated) + CNC(C)C(=O)NC1CN(S(=O)(=O)c2cccc(S(=O)(=O)N3CCC4CCC(C(=O)NC(c5ccccc5)c5ccccc5)N4C(=O)C(NC(=O)C(C)NC)C3)c2)CCC2CCC(C(=O)NC(c3ccccc3)c3ccccc3)N2C1=O
IC50 (second compound 0.00316 µM): > 3 µM | IC50 (second compound 0.01 µM): > 3 µM | IC50 (second compound 0.0316 µM): > 3 µM | IC50 (second compound 0.1 µM): > 3 µM | IC50 (second compound 0.316 µM): > 3 µM | IC50 (second compound 1 µM): > 3 µM | viability, T/C (second compound 0.00316 µM, first compound 0.00949 µM): 101% | viability, T/C (second compound 0.00316 µM, first compound 0.03 µM): 105% | viability, T/C (second compound 0.00316 µM, first compound 0.0949 µM): 109% | viability, T/C (second compound 0.00316 µM, first compound 0.3 µM): 105% | viability, T/C (second compound 0.00316 µM, first compound 0.949 µM): 115% | viability, T/C (second compound 0.00316 µM, first compound 3 µM): 92.9% | viability, T/C (second compound 0.01 µM, first compound 0.00949 µM): 108% | viability, T/C (second compound 0.01 µM, first compound 0.03 µM): 93.4% | viability, T/C (second compound 0.01 µM, first compound 0.0949 µM): 107% | viability, T/C (second compound 0.01 µM, first compound 0.3 µM): 117% | viability, T/C (second compound 0.01 µM, first compound 0.949 µM): 102% | viability, T/C (second compound 0.01 µM, first compound 3 µM): 75.4% | viability, T/C (second compound 0.0316 µM, first compound 0.00949 µM): 104% | viability, T/C (second compound 0.0316 µM, first compound 0.03 µM): 99.3% | viability, T/C (second compound 0.0316 µM, first compound 0.0949 µM): 105% | viability, T/C (second compound 0.0316 µM, first compound 0.3 µM): 101% | viability, T/C (second compound 0.0316 µM, first compound 0.949 µM): 88.3% | viability, T/C (second compound 0.0316 µM, first compound 3 µM): 78.6% | viability, T/C [1]: 105% | viability, T/C [2]: 99.1% | viability, T/C [3]: 88.4% | viability, T/C [4]: 98.6% | viability, T/C [5]: 99.6% | viability, T/C [6]: 75.9% | viability, T/C [7]: 101% | viability, T/C [8]: 90.6% | viability, T/C [9]: 91.4% | viability, T/C [10]: 99.1% | viability, T/C [11]: 86.8% | viability, T/C [12]: 74.7% | viability, T/C [13]: 95.8% | viability, T/C [14]: 89% | viability, T/C [15]: 104% | viability, T/C [16]: 90.6% | viability, T/C [17]: 93.6% | viability, T/C [18]: 66.9%

C=C(F)C(=O)N1CCN(c2nc(OCC3CCCN3C)nc3c2CCN(c2cccc4cccc(Cl)c24)C3)CC1CC#N (configuration not stated) + CNC(C)C(=O)NC1CN(S(=O)(=O)c2cccc(S(=O)(=O)N3CCC4CCC(C(=O)NC(c5ccccc5)c5ccccc5)N4C(=O)C(NC(=O)C(C)NC)C3)c2)CCC2CCC(C(=O)NC(c3ccccc3)c3ccccc3)N2C1=O
IC50 (second compound 0.01 µM): 5.51 µM | IC50 (second compound 0.0316 µM): 6.3 µM | IC50 (second compound 0.1 µM): 4.84 µM | IC50 (second compound 0.316 µM): 4.88 µM | IC50 (second compound 1 µM): 4.84 µM | viability, T/C (second compound 0.01 µM, first compound 0.0316 µM): 98.8% | viability, T/C (second compound 0.01 µM, first compound 0.1 µM): 102% | viability, T/C (second compound 0.01 µM, first compound 0.316 µM): 91.3% | viability, T/C (second compound 0.01 µM, first compound 1 µM): 108% | viability, T/C (second compound 0.01 µM, first compound 3.16 µM): 87.2% | viability, T/C (second compound 0.01 µM, first compound 10 µM): 9.53% | viability, T/C (second compound 0.0316 µM, first compound 0.0316 µM): 112% | viability, T/C (second compound 0.0316 µM, first compound 0.1 µM): 105% | viability, T/C (second compound 0.0316 µM, first compound 0.316 µM): 97.5% | viability, T/C (second compound 0.0316 µM, first compound 1 µM): 99.7% | viability, T/C (second compound 0.0316 µM, first compound 3.16 µM): 97.6% | viability, T/C (second compound 0.0316 µM, first compound 10 µM): 18% | viability, T/C (second compound 0.1 µM, first compound 0.0316 µM): 100% | viability, T/C (second compound 0.1 µM, first compound 0.1 µM): 91.1% | viability, T/C (second compound 0.1 µM, first compound 0.316 µM): 95% | viability, T/C (second compound 0.1 µM, first compound 1 µM): 94.4% | viability, T/C (second compound 0.1 µM, first compound 3.16 µM): 79.2% | viability, T/C (second compound 0.1 µM, first compound 10 µM): 0.25% | viability, T/C (second compound 0.316 µM, first compound 0.0316 µM): 98% | viability, T/C (second compound 0.316 µM, first compound 0.1 µM): 94.1% | viability, T/C (second compound 0.316 µM, first compound 0.316 µM): 84.4% | viability, T/C (second compound 0.316 µM, first compound 1 µM): 105% | viability, T/C (second compound 0.316 µM, first compound 3.16 µM): 80.2% | viability, T/C (second compound 0.316 µM, first compound 10 µM): 0.26% | viability, T/C (second compound 1 µM, first compound 0.0316 µM): 93.5% | viability, T/C (second compound 1 µM, first compound 0.1 µM): 106% | viability, T/C (second compound 1 µM, first compound 0.316 µM): 87.1% | viability, T/C (second compound 1 µM, first compound 1 µM): 82.9% | viability, T/C (second compound 1 µM, first compound 3.16 µM): 81.4% | viability, T/C (second compound 1 µM, first compound 10 µM): 0.98%

CCN1C(C(=O)NC23CCC(C(=O)O)(CC2)CC3)C(c2cccc(Cl)c2F)C2(C(=O)Nc3cc(Cl)ccc32)C12CCCCC2 (configuration not stated) + Cc1c(S(C)(=O)=O)c(-c2cc(F)cc(N3CCN(c4ccc(NS(=O)(=O)c5ccc(NC(CCN6CCC(C(=O)OCCCP(=O)(O)O)CC6)CSc6ccccc6)c(S(=O)(=O)C(F)(F)F)c5)cc4)CC3)c2)c(-c2ccc(Cl)cc2)n1C(C)C
IC50 (second compound 0.1 µM): 1.3 µM | IC50 (second compound 0.316 µM): 0.405 µM | IC50 (second compound 1 µM): 0.0258 µM | IC50 (second compound 3.16 µM): < 0.00949 µM | IC50 (second compound 10 µM): < 0.00949 µM | viability, T/C [1]: 80% | viability, T/C [2]: 84.5% | viability, T/C [3]: 71.5% | viability, T/C [4]: 78.3% | viability, T/C [5]: 57.6% | viability, T/C [6]: 29.6% | viability, T/C [7]: 57.2% | viability, T/C [8]: 65.5% | viability, T/C [9]: 67.2% | viability, T/C [10]: 51.9% | viability, T/C [11]: 36.6% | viability, T/C [12]: 13.4% | viability, T/C [13]: 58.8% | viability, T/C [14]: 49.2% | viability, T/C [15]: 38% | viability, T/C [16]: 29.3% | viability, T/C [17]: 25.9% | viability, T/C [18]: 15% | viability, T/C (second compound 3.16 µM, first compound 0.00949 µM): 32.1% | viability, T/C (second compound 3.16 µM, first compound 0.03 µM): 42% | viability, T/C (second compound 3.16 µM, first compound 0.0949 µM): 35.3% | viability, T/C (second compound 3.16 µM, first compound 0.3 µM): 21.6% | viability, T/C (second compound 3.16 µM, first compound 0.949 µM): 17.2% | viability, T/C (second compound 3.16 µM, first compound 3 µM): 9.63% | viability, T/C (second compound 10 µM, first compound 0.00949 µM): 46.4% | viability, T/C (second compound 10 µM, first compound 0.03 µM): 48.7% | viability, T/C (second compound 10 µM, first compound 0.0949 µM): 38.3% | viability, T/C (second compound 10 µM, first compound 0.3 µM): 35.2% | viability, T/C (second compound 10 µM, first compound 0.949 µM): 22.1% | viability, T/C (second compound 10 µM, first compound 3 µM): 4.04%
